Test results reported in PubChem BioAssay (NCI).
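Exposure lasted 48 hours, with cells grown in 96-well plates and compounds tested at five concentrations. At the GI50, growth is halved. TGI: total growth inhibition.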

Key:
Experiment in all cases: DTP human tumour cell line panel, 48 h
[1] = system: HCC-2998 colon
[2] = system: IGROV1 ovarian
[3] = system: OVCAR-5 ovarian
[4] = system: MDA-MB-435
[5] = system: RXF 393 renal
[6] = system: UACC-257 melanoma
[7] = system: SK-MEL-5 melanoma
[8] = system: TK-10 renal
[9] = system: HT29 colon
[10] = system: MDA-MB-231 breast
[11] = system: T-47D breast
[12] = system: CCRF-CEM leukemia
[13] = system: COLO 205 colon
[14] = system: MCF7 breast
[15] = system: NCI-H460 lung
[16] = system: SK-MEL-28 melanoma
[17] = system: HOP-62 NSCLC
[18] = system: PC-3 prostate
[19] = system: A549 NSCLC
[20] = system: SF-295 CNS
[21] = system: NCI-H226 lung
[22] = system: CAKI-1 renal
[23] = system: SNB-19 CNS
[24] = system: DU-145 prostate
[25] = system: UO-31 renal
[26] = system: ACHN renal
[27] = system: SW-620 colon
[28] = system: OVCAR-8 ovarian
[29] = system: OVCAR-4 ovarian
[30] = system: U251 CNS
[31] = system: SF-539 CNS
[32] = system: SNB-75 CNS
[33] = system: MOLT-4 leukemia
[34] = system: A498 renal
[35] = system: KM12 colon
[36] = system: SN12C renal
[37] = system: K-562 leukemia
[38] = system: SR leukemia
[39] = system: HCT-116 colon
[40] = system: HL-60(TB) leukemia
[41] = system: HS 578T breast
[42] = system: HCT-15 colon
[43] = system: BT-549 breast
[44] = system: NCI-H23 lung
[45] = system: M14 melanoma
[46] = system: HOP-92 NSCLC
[47] = system: SF-268 CNS
[48] = system: 786-0 renal
[49] = system: OVCAR-3 ovarian
[50] = system: SK-MEL-2 melanoma
[51] = system: NCI/ADR-RES ovarian
[52] = system: SK-OV-3 ovarian
[53] = system: MALME-3M melanoma
[54] = system: UACC-62 melanoma
[55] = system: RPMI-8226 leukemia

## C[C@]12CC[C@@H]3c4ccc(O)cc4CC[C@H]3[C@@H]1CC[C@@H]2NS(=O)(=O)c1ccc2ccccc2c1
[1]
  GI50: 4.24 µM
  TGI: 15.5 µM
[2]
  GI50: 4.1 µM
  TGI: 17.2 µM
[3]
  GI50: 3.4 µM
  TGI: 13.4 µM
[4]
  GI50: 2.31 µM
  TGI: 5.89 µM
[5]
  GI50: 1.84 µM
  TGI: 4.33 µM
[6]
  GI50: 3.3 µM
  TGI: 17.6 µM
[7]
  GI50: 1.78 µM
  TGI: 3.36 µM
[8]
  GI50: 3.52 µM
  TGI: 12.8 µM
[9]
  GI50: 2.47 µM
  TGI: 6.11 µM
[10]
  GI50: 1.81 µM
  TGI: 4.68 µM
[11]
  GI50: 3.9 µM
  TGI: 16.3 µM
[12]
  GI50: 2.94 µM
  TGI: > 100 µM
[13]
  GI50: 1.94 µM
  TGI: 3.37 µM
[14]
  GI50: 3.36 µM
  TGI: 9.48 µM
[15]
  GI50: 2.21 µM
  TGI: 4.97 µM
[16]
  GI50: 2.31 µM
  TGI: 5.92 µM
[17]
  GI50: 5.87 µM
  TGI: 20.2 µM
[18]
  GI50: 2.75 µM
  TGI: 17.3 µM
[19]
  GI50: 3.24 µM
  TGI: 13.2 µM
[20]
  GI50: 2.25 µM
  TGI: 6.03 µM
[21]
  GI50: 2.98 µM
  TGI: 11.5 µM
[22]
  GI50: 3.16 µM
  TGI: 10.4 µM
[23]
  GI50: 4.17 µM
  TGI: > 100 µM
[24]
  GI50: 4.14 µM
  TGI: 17.5 µM
[25]
  GI50: 1.83 µM
  TGI: 5.57 µM
[26]
  GI50: 2.95 µM
  TGI: 10.5 µM
[27]
  GI50: 3.4 µM
  TGI: 15.7 µM
[28]
  GI50: 3.16 µM
  TGI: 11.8 µM
[29]
  GI50: 1.98 µM
  TGI: 9.36 µM
[30]
  GI50: 3.6 µM
  TGI: 15.4 µM
[31]
  GI50: 2.11 µM
  TGI: 6.1 µM
[32]
  GI50: 2.1 µM
  TGI: 12.6 µM
[33]
  GI50: 3.37 µM
  TGI: > 100 µM
[34]
  GI50: 1.72 µM
  TGI: 4.01 µM
[35]
  GI50: 1.92 µM
  TGI: 4.06 µM
[36]
  GI50: 1.94 µM
  TGI: 4.25 µM
[37]
  GI50: 3.42 µM
  TGI: > 100 µM
[38]
  GI50: 3.72 µM
  TGI: 95 µM
[39]
  GI50: 2.98 µM
  TGI: 10.6 µM
[40]
  GI50: 3.31 µM
  TGI: 13.7 µM
[41]
  GI50: 2.21 µM
  TGI: 7.14 µM
[42]
  GI50: 2.89 µM
  TGI: 10.5 µM
[43]
  GI50: 2.92 µM
  TGI: 8.59 µM
[44]
  GI50: 3.34 µM
  TGI: 14.8 µM
[45]
  GI50: 3.2 µM
  TGI: 10.5 µM
[46]
  GI50: 1.83 µM
  TGI: 7.14 µM
[47]
  GI50: 3.68 µM
  TGI: 18.4 µM
[48]
  GI50: 2.96 µM
  TGI: 8.9 µM
[49]
  GI50: 2.63 µM
  TGI: 7.3 µM
[50]
  GI50: 2.75 µM
  TGI: 7.94 µM
[51]
  GI50: 2.61 µM
  TGI: 8 µM
[52]
  GI50: 5.79 µM
  TGI: 36.4 µM
[53]
  GI50: 2.56 µM
  TGI: 8.06 µM
[54]
  GI50: 1.75 µM
  TGI: 3.9 µM
[55]
  GI50: 2.93 µM
  TGI: 9.94 µM
